The source made the active and inactive calls. No rule for the calls is given here.
Tested on: CCRIS mutagenicity, Ames/micronucleus/aberration tests
Assay: CCRIS mutagenicity studies

ClC(Cl)Br
mutagenic call (End Point: Ames Salmonella typhimurium, Test System: TA97, Metabolic Activation: Hamster, liver, S-9 (10 & 30%), Aroclor 1254, Method: Preincubation): inactive; negative
mutagenic call (End Point: Ames Salmonella typhimurium, Test System: TA97, Metabolic Activation: None, Method: Preincubation): inactive; negative
mutagenic call (End Point: Ames Salmonella typhimurium, Test System: TA97, Metabolic Activation: Rat, liver, S-9 (10 & 30%), Aroclor 1254, Method: Preincubation): inactive; negative
mutagenic call (End Point: Ames Salmonella typhimurium, Test System: TA98, Metabolic Activation: Hamster, liver, S-9 (10 & 30%), Aroclor 1254, Method: Preincubation): inactive; negative
mutagenic call (End Point: Ames Salmonella typhimurium, Test System: TA98, Metabolic Activation: None, Method: Preincubation): inactive; negative
mutagenic call (End Point: Ames Salmonella typhimurium, Test System: TA98, Metabolic Activation: Rat, liver, S-9 (10 & 30%), Aroclor 1254, Method: Preincubation): inactive; negative
mutagenic call (End Point: Ames Salmonella typhimurium, Test System: TA100, Metabolic Activation: Hamster, liver, S-9 (10 & 30%), Aroclor 1254, Method: Preincubation): inactive; negative
mutagenic call (End Point: Ames Salmonella typhimurium, Test System: TA100, Metabolic Activation: None, Method: Preincubation): inactive; negative
mutagenic call (End Point: Ames Salmonella typhimurium, Test System: TA100, Metabolic Activation: Rat, liver, S-9 (10 & 30%), Aroclor 1254, Method: Preincubation): inactive; negative
mutagenic call (End Point: Ames Salmonella typhimurium, Test System: TA1535, Metabolic Activation: Hamster, liver, S-9 (10 & 30%), Aroclor 1254, Method: Preincubation): inactive; negative
mutagenic call (End Point: Ames Salmonella typhimurium, Test System: TA1535, Metabolic Activation: None, Method: Preincubation): inactive; negative
mutagenic call (End Point: Ames Salmonella typhimurium, Test System: TA1535, Metabolic Activation: Rat, liver, S-9 (10 & 30%), Aroclor 1254, Method: Preincubation): inactive; negative
mutagenic call (End Point: IN VITRO CHROMOSOMAL ABERRATIONS, Test System: CHINESE HAMSTER LUNG FIBROBLAST CELLS (CHL/IU), Metabolic Activation: RAT, LIVER, S-9, PHENOBARBITAL AND 5,6-BENZOFLAVONE): active; positive (structural changes)
mutagenic call (End Point: IN VITRO CHROMOSOMAL ABERRATIONS, Test System: CHO CELLS, Metabolic Activation: NONE): inactive; negative
mutagenic call (End Point: IN VITRO CHROMOSOMAL ABERRATIONS, Test System: CHO CELLS, Metabolic Activation: RAT, LIVER, S-9, AROCLOR 1254): inactive; negative
mutagenic call (End Point: In vivo micronucleus, Test System: Bone marrow polychromatic erythrocytes, Species: Mouse, Strain/Sex: B6C3F1/Male, Route: Intraperitoneal): inactive; negative; strain was inferred
mutagenic call (End Point: In vivo micronucleus, Test System: Peripheral blood normochromatic erythrocytes, Species: Mouse, Strain/Sex: B6C3F1/Female, Route: Oral): inactive; negative
mutagenic call (End Point: In vivo micronucleus, Test System: Peripheral blood normochromatic erythrocytes, Species: Mouse, Strain/Sex: B6.129-Trp53tm1Brd (N5) p53 Haploinsufficient//Male, Route: Oral): inactive; negative
mutagenic call (End Point: In vivo micronucleus, Test System: Peripheral blood normochromatic erythrocytes, Species: Mouse, Strain/Sex: B6.129-Trp53tm1Brd (N5) p53 Haploinsufficient/Female, Route: Oral): inactive; negative
mutagenic call (End Point: In vivo micronucleus, Test System: Peripheral blood normochromatic erythrocytes, Species: Mouse, Strain/Sex: B6.129-Trp53tm1Brd (N5) p53 Haploinsufficient/Male, Route: Oral): inactive; negative, positive results only at 350 mg/l; trend test not significant.
mutagenic call (End Point: In vivo micronucleus, Test System: Peripheral blood normochromatic erythrocytes, Species: Mouse, Strain/Sex: FVB Tg.AC hemizygous/Female, Route: Dermal): inactive; negative
mutagenic call (End Point: In vivo micronucleus, Test System: Peripheral blood normochromatic erythrocytes, Species: Mouse, Strain/Sex: FVB Tg.AC hemizygous/Female, Route: Oral): inactive; negative
mutagenic call (End Point: In vivo micronucleus, Test System: Peripheral blood normochromatic erythrocytes, Species: Mouse, Strain/Sex: FVB Tg.AC hemizygous/Male, Route: Dermal): inactive; negative
mutagenic call (End Point: In vivo micronucleus, Test System: Peripheral blood normochromatic erythrocytes, Species: Mouse, Strain/Sex: FVB Tg.AC hemizygous/Male, Route: Oral): inactive; negative
mutagenic call (End Point: Mouse Lymphoma, Test System: L5178Y (TK+/TK-), Metabolic Activation: None, Method: Suspension/Plate): inactive; negative
mutagenic call (End Point: Mouse Lymphoma, Test System: L5178Y (TK+/TK-), Metabolic Activation: Rat, liver, S-9, Aroclor 1254, Method: Suspension/Plate): active; positive
mutagenic call (Test System: AMES SALMONELLA TYPHIMURIUM, Strain/Indicator: RSJ100, Metabolic Activation: NONE, Method: STANDARD PLATE): active; positive
mutagenic call (Test System: AMES SALMONELLA TYPHIMURIUM, Strain/Indicator: TA97, Metabolic Activation: NONE, Method: STANDARD PLATE): inactive; negative
mutagenic call (Test System: AMES SALMONELLA TYPHIMURIUM, Strain/Indicator: TA97, Metabolic Activation: RAT, LIVER, S-9, AROCLOR 1254, Method: STANDARD PLATE): active; positive
mutagenic call (Test System: AMES SALMONELLA TYPHIMURIUM, Strain/Indicator: TA98, Metabolic Activation: HAMSTER, LIVER, S-9, AROCLOR 1254, Method: PREINCUBATION): inactive; negative
mutagenic call (Test System: AMES SALMONELLA TYPHIMURIUM, Strain/Indicator: TA98, Metabolic Activation: NONE, Method: PREINCUBATION): inactive; negative
mutagenic call (Test System: AMES SALMONELLA TYPHIMURIUM, Strain/Indicator: TA98, Metabolic Activation: NONE, Method: STANDARD PLATE): inactive; negative
mutagenic call (Test System: AMES SALMONELLA TYPHIMURIUM, Strain/Indicator: TA98, Metabolic Activation: RAT, LIVER, S-9, AROCLOR 1254, Method: PREINCUBATION): inactive; negative
mutagenic call (Test System: AMES SALMONELLA TYPHIMURIUM, Strain/Indicator: TA100, Metabolic Activation: HAMSTER, LIVER, S-9, AROCLOR 1254, Method: PREINCUBATION): inactive; negative
mutagenic call (Test System: AMES SALMONELLA TYPHIMURIUM, Strain/Indicator: TA100, Metabolic Activation: NONE, Method: DESICCATOR): active; positive
mutagenic call (Test System: AMES SALMONELLA TYPHIMURIUM, Strain/Indicator: TA100, Metabolic Activation: NONE, Method: FLUCTUATION TEST): inactive; negative
mutagenic call (Test System: AMES SALMONELLA TYPHIMURIUM, Strain/Indicator: TA100, Metabolic Activation: NONE, Method: PREINCUBATION): inactive; negative
mutagenic call (Test System: AMES SALMONELLA TYPHIMURIUM, Strain/Indicator: TA100, Metabolic Activation: NONE, Method: STANDARD PLATE): inactive; negative
mutagenic call (Test System: AMES SALMONELLA TYPHIMURIUM, Strain/Indicator: TA100, Metabolic Activation: RAT, LIVER, S-9, AROCLOR 1254, Method: FLUCTUATION TEST): inactive; negative
mutagenic call (Test System: AMES SALMONELLA TYPHIMURIUM, Strain/Indicator: TA100, Metabolic Activation: RAT, LIVER, S-9, AROCLOR 1254, Method: PREINCUBATION): inactive; negative
mutagenic call (Test System: AMES SALMONELLA TYPHIMURIUM, Strain/Indicator: TA104, Metabolic Activation: NONE, Method: STANDARD PLATE): inactive; negative
mutagenic call (Test System: AMES SALMONELLA TYPHIMURIUM, Strain/Indicator: TA104, Metabolic Activation: RAT, LIVER, S-9, AROCLOR 1254, Method: STANDARD PLATE): active; positive
mutagenic call (Test System: AMES SALMONELLA TYPHIMURIUM, Strain/Indicator: TA1535 (GST+), Metabolic Activation: NONE, Method: STANDARD PLATE): active; positive
mutagenic call (Test System: AMES SALMONELLA TYPHIMURIUM, Strain/Indicator: TA1535 (GST-), Metabolic Activation: NONE, Method: STANDARD PLATE): inactive; negative
mutagenic call (Test System: AMES SALMONELLA TYPHIMURIUM, Strain/Indicator: TA1535, Metabolic Activation: HAMSTER, LIVER, S-9, AROCLOR 1254, Method: PREINCUBATION): inactive; negative
mutagenic call (Test System: AMES SALMONELLA TYPHIMURIUM, Strain/Indicator: TA1535, Metabolic Activation: NONE, Method: PREINCUBATION): inactive; negative
mutagenic call (Test System: AMES SALMONELLA TYPHIMURIUM, Strain/Indicator: TA1535, Metabolic Activation: RAT, LIVER, S-9, AROCLOR 1254, Method: PREINCUBATION): inactive; negative
mutagenic call (Test System: AMES SALMONELLA TYPHIMURIUM, Strain/Indicator: TA1535, Metabolic Activation: RAT, LIVER, S-9, AROCLOR 1254, Method: STANDARD PLATE): inactive; negative
mutagenic call (Test System: AMES SALMONELLA TYPHIMURIUM, Strain/Indicator: TA1537, Metabolic Activation: HAMSTER, LIVER, S-9, AROCLOR 1254, Method: PREINCUBATION): inactive; negative
mutagenic call (Test System: AMES SALMONELLA TYPHIMURIUM, Strain/Indicator: TA1537, Metabolic Activation: NONE, Method: PREINCUBATION): inactive; negative
mutagenic call (Test System: AMES SALMONELLA TYPHIMURIUM, Strain/Indicator: TA1537, Metabolic Activation: NONE, Method: STANDARD PLATE): active; positive
mutagenic call (Test System: AMES SALMONELLA TYPHIMURIUM, Strain/Indicator: TA1537, Metabolic Activation: RAT, LIVER, S-9, AROCLOR 1254, Method: PREINCUBATION): inactive; negative
mutagenic call (Test System: AMES SALMONELLA TYPHIMURIUM, Strain/Indicator: TA1537, Metabolic Activation: RAT, LIVER, S-9, AROCLOR 1254, Method: STANDARD PLATE): inactive; negative
mutagenic call (Test System: MOUSE LYMPHOMA, Strain/Indicator: L5178Y (TK+/TK-), Metabolic Activation: NONE, Method: MICROWELL): inactive; negative
mutagenic call (Test System: MOUSE LYMPHOMA, Strain/Indicator: L5178Y (TK+/TK-), Metabolic Activation: NONE, Method: SUSPENSION/PLATE): inactive; negative
mutagenic call (Test System: MOUSE LYMPHOMA, Strain/Indicator: L5178Y (TK+/TK-), Metabolic Activation: RAT, LIVER, S-9, AROCLOR 1254, Method: SUSPENSION/PLATE): active; positive
mutagenic call (Test System: MOUSE LYMPHOMA, Strain/Indicator: L5178Y (TK+/TK-), Metabolic Activation: S-9, Method: MICROWELL): active; positive
mutagenic call (Test System: UDS RAT HEPATOCYTES, Strain/Indicator: THY INCORP, Metabolic Activation: NONE, Method: AUTORADIOGRAPHY): inactive; negative

Source: PubChem BioAssay AID1259407 (Chemical Carcinogenesis Research Information System (CCRIS), 2018)
